# Results as given in patent US9809622B2, “Tumor-targeting polypeptide and application thereof” (Sun Yat-sen University Cancer Center, priority 2013, dated 2017).
# Positions of bridges follow the written chain, without caps; N, C: chain ends. Non-standard residues stand in square brackets, D forms with d. Residues, ends and D or L forms follow the SMILES beside them. No end group written: not given here. *: point of attachment. Biotin = O=C1N[C@H]2[C@H](CS[C@H]2CCCCC(=O)*)N1
# What was measured:
# CNE2 cells [1] = settings: 37° C. two hours
# Procedure: The cellular immunofluorescence assay was applied to detect whether Biotin-35 peptide can penetrate CNE2 cells. Detailed steps were as followed: • 1) Incubating Biotin-35 peptide or Biotin-control peptide with cells at 37° C. for two hours; • 2) Washing three times with 1 ml PBS for 5 minutes; • 3) Fixing the cells with 4% paraformaldehyde for 10 minutes; • 4) Incubating cells with 0.1% Triton-X100 for 5 minutes; • 5) Blocking with 5% BSA for 30 minutes; • 6) Washing with 1 ml PBS twice; • 7) Adding FITC-streptavidin and avoiding light for one hour; • 8) Washing three times with 1 ml PBS for 5 minutes; • 9) Adding DAPI at a ratio of 1:2000 and keeping it away from light at room temperature for 5 minutes, • 10) Washing with 1 ml PBS for 5 minutes, • 11) Mounting samples with Anti-fade, and observing the samples under the laser confocal microscope.
# CNE2 [2] = test: Apoptosis by Cleaved Caspase 3/7 kit, flow cytometry; format: cell-based; settings: FIG. 6A
# Procedure: (§1) Therapeutic effects of 35-AP peptide were assessed by Cleaved Caspase 3/7 kit. Detailed steps were as followed: • 1) After the cells were planked for 24 hours, the peptide dissolved by 1640 was incubated with cells at 37° C. for four hours; • 2) Trypsinizing cells with TrypLE Expression, counting and adjusting the concentration to 1.0*10^6 cells/ml, and transferring 300 μl into flow cytometry tube; • 3) Adding 10 μl 30*FLICA working solution; • 4) Incubating the cells at 37° C. with 5% CO2 for one hour, and mixing once every 15 minutes; • 5) Washing with 2 ml Washing buffer, then centrifuging at 400 g force for 5 minutes; • 6) Re-suspending the precipitate with 1 ml Washing buffer; • 7) Detecting the staining signal using flow cytometer.
# [3] = test system: nasopharyngeal carcinoma cell CNE2; test: Flow cytometry analysis of binding of Cy5-35 peptide; format: cell-based; settings: 5 μM or 10 μM, on ice 30 minutes; FIG. 1C
# Procedure: Flow cytometry analysis was applied to detect the binding affinity of Cy5-35 peptide to nasopharyngeal carcinoma cell CNE2. Firstly, the 35 peptide and control peptides separately coupled with fluorescent dye Cy5 were synthesized. Then, Cy5-35 peptide were incubated with cells. At the end, the binding efficacy was calculated using the flow cytometry analysis. Detailed steps were as followed: • 1) Trypsinizing cells, counting and adjusting the concentration to 1.0*10^6 cells/tube, and re-suspending cells with 200 μl RPMI 1640 medium; • 2) Adding Cy5-Control peptide or Cy5-35 peptide dissolved with PBS at a concentration of 5 μM or 10 μM, then incubating on ice for 30 minutes. • 3) Washing with 1 ml PBS, then centrifuging at 400 g force for 5 minutes; repeating this step twice; • 4) Re-suspending the precipitate with 1 ml TBS, • 5) Conducting the flow cytometry analysis.
# [4] = test system: nasopharyngeal carcinoma cells CNE2; test: Flow cytometry analysis of cell penetration; format: cell-based; settings: 37° C. two hours; FIG. 2B
# From the text: The flow cytometry analysis was applied to detect whether phage 35 can penetrate the nasopharyngeal carcinoma cells CNE2.
# [5] = test system: tumor vessels and tumor cells; test: Targeting and penetrating tumor vessels and tumor cells, frozen section and immunohistochemical assay; format: in vivo, BALB/C nude mice; settings: 300 μg
# Procedure: Cy5-35 peptide is tested to target and penetrate the vessels using the frozen section and immunohistochemical assay. Detailed steps were as followed: • 1) Using nine 4-week-old BALB/C nude mice • 2) Trypsinizing cells, counting and adjusting the concentration to 1.0*10^6 cells/ml, and re-suspending cells with 200 μl RPMI 1640 medium containing 20% Matrigel, then subcutaneously injecting into the nude mice; • 3) Observing and measuring the size of tumor after 1-2 weeks. Based on the tumor size, the mice were randomly divided into three groups (PBS, Cy5-Control and Cy5-35, three mice in each group); • 4) Intravenously injecting 200 μl PBS or 300 μg fluorescence peptide dissolved in 200 μl PBS; • 5) Obtaining the tumor tissues, and making frozen sections and cutting slides, storing at −80° C.; • 6) Fixing the slides in cooled acetone for 10 min, washing 5 times with PBS for 5 minutes; • 7) Soaking the slides with 3% H2O2 to remove endogenous peroxidase and then washing 3 times with 1 ml PBS for 5 minutes; • 8) Blocking with 10% BSA for 20 minutes at room temperature; • 9) Incubating with anti-CD31 mouse first antibody at 4° C. overnight; • 10) Washing 3 times with PBS for 5 minutes; • 11) Incubating anti-mouse FITC second antibody at room temperature for one hour, keeping it away from light, and then washing 3 times with 1 ml PBS for 5 min; • 12) Adding DAPI at room temperature and keeping for 5 minutes and then washing 3 times with 1 ml PBS for 5 minutes; • 13) Covering the slides with anti-fade, then observing the slides under the laser confocal microscope
# nasopharyngeal carcinoma = test: Near-infrared fluorescence imaging of tumor, small animal imaging; format: in vivo, BALB/C nude mice; settings: 24 hours after intravenous injection
# Procedure: (§2) Cy5-35 peptide distribution was examined in the different organs and tumors of nude mice. Small animal imaging assay was operated as followed: • 1) Using nine 4-week-old BALB/C nude mice; • 2) Trypsinizing cells, counting and adjusting the concentration to 1.0*10^6 cells/ml, and re-suspending cells with 200 μl RPMI 1640 medium containing 20% Matrigel, then subcutaneously injecting into the nude mice; • 3) Observing and measuring the size of tumor after 1-2 weeks. Based on the tumor size, the mice were randomly divided into three groups (PBS, Cy5-Control and Cy5-35, 3 mice in each group); • 4) Intravenously injecting 200 μl PBS or 300 μg fluorescence peptide dissolved in 200 μl PBS; the peptide distribution is detected in both normal organs and tumor using Caliper IVIS Lumina II; • 5) Obtaining normal organs and the tumor tissues, homogenizing them, and calculating the fluorescence intensity of normal organs and the tumor for statistical analysis.
# MDA-MB-231 = test: Near-infrared fluorescence imaging in MDA-MB-231 nude mice model; format: in vivo; settings: FIG. 4D
# Procedure: as §2
# To detect whether Cy5-35 peptide can apply to other tumors, the peptides were applied to MDA-MB-231 nude mice model.
# [6] = test system: nasopharyngeal carcinoma cell line, CNE2; test: Blocking test in phage counting assay (35 peptide blocks phage 35 binding); format: cell-based; settings: FIG. 1B
# Procedure: The phage counting assay was conducted to first test the binding ability of phage 35 to nasopharyngeal carcinoma cell line, CNE2 and then test whether the 35 peptide can block the binding of the phage 35 to CNE2. The process will be described in detail hereinafter. • 1) Trypsinizing cells, counting to obtain 1.0*10^6 cells/tube, and re-suspending cells with 200 μl RPMI (Roswell Park Memorial Institute) 1640 medium; • 2) For the blocking test, adding the 35 peptide at a corresponding concentration and incubating on ice for 30 minutes (the binding assay skips this step and directly goes to the third step); • 3) Adding 1.0*10^8 phages, and incubating on ice for binding for one hour; • 4) After washing with 1 ml PBS (Phosphate Buffered Saline), the resulting products were centrifuged at 400 g force for 5 min; repeating this step three times; • 5) Re-suspending the precipitate with 1 ml TBS (Tris Buffered Saline), diluting the resulting suspension liquid 10^3-10^4 fold, and only taking 100 μl for phage count assay; • 6) Inoculating BL21 competent cell for T7 phage with 1:100 v/v, then shaking at 200 RPM at 37° C. for four hours until OD600 (Optical Density at a wavelength of 600 nm) reaches 0.5-1.0 when the bacteria are on the logarithmic phase. […] The titer of phage was calculated based on the diluted factors.
# 5-8F = test: Apoptosis by Cleaved Caspase 3/7 kit, flow cytometry; format: cell-based; settings: FIG. 6B
# Procedure: as §1
# CNE1 = test: as above; format: cell-based; settings: FIG. 6B
# Procedure: as §1
# HONE1 = test: as above; format: cell-based; settings: FIG. 6B
# Procedure: as §1
# SUNE1 = test: as above; format: cell-based; settings: FIG. 6B
# Procedure: as §1
# CNE2 [7] = test: Cleaved Caspase3 cellular immunofluorescence assay; format: cell-based; settings: incubated with CNE2; FIG. 6C
# CNE2 cells [8] = test: Therapeutic effect of 35-AP peptide in tumor-bearing mice; format: in vivo, BALB/C nude mice; settings: 200 μg intravenously every other day 6 times, compared with two control groups, FIG. 6E
# Procedure: Injecting 35-AP peptide to tumor-bearing mice to detect its therapeutic effect. Detailed steps were as follows: • 1) Selecting twenty four 4-week-old BALB/C nude mice; • 2) Trypsinizing CNE2 cells, counting and adjusting the concentration to 1.0*10^6 cells/ml, and re-suspending cells with 200 μl RPMI 1640 medium containing 20% Matrigel, then subcutaneously injecting 200 μl re-suspended cells into the nude mice; • 3) Observing and measuring the size of tumor after 1-2 weeks. Based on the tumor size, the mice were randomly divided into three groups (PBS, Control AP and 35-AP); • 4) Intravenously injecting 200 μl PBS or 200 μg fluorescence peptide dissolved in 200 μl PBS every other day for 6 times in total. Measuring the length and width of tumor before and after injection. The volume of tumor=0.52*(length*width*width); • 5) Performing statistical analysis of the size of tumors.
# [9] = 2 h after intravenous injection, FIG. 3B
compound,measurement,setting,value
Biotin-CRWYDENAC (cysteine pairing not given here) [Biotin-35 peptide],penetration into CNE2 (cellular immunofluorescence),CNE2 cells [1],is able to penetrate into CNE2
"D (KLAKLAKKLAKLAK) (D-amino acids) [AP peptide, reference compound]",apoptosis in CNE2,CNE2 [2],cannot induce the apoptosis in CNE2
Cy5-CRWYDENAC (disulfide 1-9) [Cy5-35 peptide],binding to CNE2 cells (flow cytometry),[3],binds to CNE2 cells in a dose-dependent manner
same,penetration into CNE2 (flow cytometry),[4],penetrates into CNE2 in a dose-dependent manner
same,co-localization with vessel marker CD31 in tumor,[5]; [9],co-localized with vessel marker CD31
same,penetration of tumor vessels and tumor cells,[5]; [9],part of Cy5-35 peptides penetrated the tumor vessels and tumor cells
same,co-localization with vessel marker CD31 in tumor,"[5]; half an hour after intravenous injection, FIG. 3A",co-localized with vessel marker CD31
same,enrichment in tumor (NIR imaging),nasopharyngeal carcinoma; FIG. 4A,significantly enriched in tumor
same,residual peptide in lung (NIR imaging),nasopharyngeal carcinoma; FIG. 4B,certain residual peptides in lung
same,intensity of fluorescence in tumor versus other organs,nasopharyngeal carcinoma; FIG. 4C,significantly stronger than that in other organs
same,breast cancer imaging,MDA-MB-231,can also be applied in breast cancer imaging
CRWYDENAC (disulfide 1-9) [35 peptide],blocking of phage 35 binding to CNE2,[6],prevents phage 35 from binding to CNE2 in a dose-dependent manner
same,apoptosis in CNE2,CNE2 [2],cannot induce the apoptosis in CNE2
D (KLAKLAKKLAKLAK-GG-CRWYDENAC) (KLAKLAKKLAKLAKGGCRWYDENAC; D-amino acids) [(35-AP)D],apoptosis in CNE2,CNE2 [2],also activated the apoptosis of CNE2
"CC(C)C[C@@H](NC(=O)[C@H](N)CCCCN)C(=O)N[C@H](C)C(=O)N[C@H](CCCCN)C(=O)N[C@H](CC(C)C)C(=O)N[C@H](C)C(=O)N[C@H](CCCCN)C(=O)N[C@H](CCCCN)C(=O)N[C@H](CC(C)C)C(=O)N[C@H](C)C(=O)N[C@H](CCCCN)C(=O)N[C@H](CC(C)C)C(=O)N[C@H](C)C(=O)N[C@H](CCCCN)C(=O)NCC(=O)NCC(=O)N[C@H]1CSSC[C@@H](C(=O)O)NC(=O)[C@H](C)NC(=O)[C@H](CC(N)=O)NC(=O)[C@H](CCC(=O)O)NC(=O)[C@H](CC(=O)O)NC(=O)[C@H](Cc2ccc(O)cc2)NC(=O)[C@H](Cc2c[nH]c3ccccc23)NC(=O)[C@H](CCCNC(=N)N)NC1=O [35-AP peptide, D (KLAKLAKKLAKLAK)-GG-CRWYDENAC] (H-[dK][dL][dA][dK][dL][dA][dK][dK][dL][dA][dK][dL][dA][dK]GGCRWYDENAC-OH; disulfide 17-25 (inferred); N-terminus and C-terminus assumed)",cell apoptosis in 5-8F,5-8F,also led to cell apoptosis
same,cell apoptosis in CNE1,CNE1,also led to cell apoptosis
same,apoptosis in CNE2,CNE2 [2],can significantly promote the apoptosis
same,cell apoptosis in HONE1,HONE1,also led to cell apoptosis
same,cell apoptosis in SUNE1,SUNE1,also led to cell apoptosis
same,cleaved Caspase3 activation,CNE2 [7],cleaved Caspase3 was activated
same,tumor volume,CNE2 cells [8],reduced the tumor volume markedly
